The values below come from ChEMBL document CHEMBL1201862, “PubChem BioAssay data set” (2004).

Among the test systems are 786-0; CAKI-1; DMS-114; HCT-15; HL-60; HOP-62; HOP-92; K562; KM12; LOX IMVI; Malme-3M; OVCAR-4; RXF 393; SK-MEL-5; SW-620; UACC-257; Hs-578T; MDA-N; NCI/ADR-RES; T47D.
What all share (assay): NCI tumour cell line growth inhibition, 48 h

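These data come from cells grown in 96-well plates and exposed to compound for 48 hours at five concentrations. Here, GI50 denotes the concentration required for 50% inhibition of growth.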 The source made the active and inactive calls. Rule as the data show it: active = GI50 up to about 1.1 µM and inactive = higher.

`COC(=O)C12OCC34C(CC5C(C)C6=CC(=O)OC6=CC5(C)C3C(O)C1O)OC(=O)C(OC(C)=O)C24` (stereo not given): the GI50 in the assay with 786-0 is 14.5 µM (inactive); with CAKI-1 it was 9.91 µM (inactive); in the assay with DMS-114, 12.3 µM (inactive); in the assay on HCT-15, 15.3 µM; in the assay on HL-60, 12.1 µM (inactive); with HOP-62, 25.8 µM (inactive). Also, the GI50 was 16.9 µM (inactive) with HOP-92; 14.7 µM (inactive) with K562; 16.4 µM (inactive) in the assay on KM12; 17.6 µM (inactive) with LOX IMVI; 13 µM (inactive) in the assay with Malme-3M; 18.1 µM (inactive) in the assay with OVCAR-4. The GI50 with RXF 393 was 13.7 µM (inactive); with SK-MEL-5, 15.3 µM (inactive); in the assay with SW-620, 9.4 µM (inactive); in the assay with UACC-257 it was 14.1 µM (inactive).
Consider `COC1CC(Br)(C#N)C1` (stereo not given), for which the GI50 was > 100 µM (inactive) in the assay on 786-0; > 100 µM (inactive) in the assay with CAKI-1; > 100 µM (inactive) with DMS-114; greater than 100 µM in the assay on HCT-15; > 100 µM (inactive) with HL-60; > 100 µM (inactive) in the assay with HOP-62. Moreover, the GI50 in the assay on HOP-92, with K562, in the assay with KM12, in the assay on Malme-3M, in the assay with OVCAR-4 and in the assay on RXF 393 was > 100 µM (inactive) throughout. In the assay on SK-MEL-5, the GI50 is > 100 µM (inactive).
For `Cn1c(=O)c(C(=O)NC(=O)OCc2ccccc2)cn(CCSCCOC(=O)NCCCCCCNC(=O)OCCSCCn2cc(C(=O)NC(=O)OCc3ccccc3)c(=O)n(C)c2=O)c1=O`, the GI50 was 83.9 µM (inactive) in the assay with 786-0; 78 µM (inactive) in the assay with DMS-114; greater than 100 µM with HCT-15; > 100 µM (inactive) in the assay with HL-60; 36.7 µM (inactive) in the assay on HOP-62; 23.2 µM (inactive) in the assay on HOP-92. Also, the GI50 in the assay with K562 is > 100 µM (inactive); in the assay on LOX IMVI it was > 100 µM (inactive); with Malme-3M it was > 100 µM (inactive); in the assay on OVCAR-4, > 100 µM (inactive); with RXF 393 it was 33.7 µM (inactive); in the assay on SK-MEL-5 it was > 100 µM (inactive). Also, in the assay with SW-620, the GI50 was > 100 µM (inactive).
In the case of `CC[N+](C)(C)c1ccc(C(=C2C=CC(=[N+](C)C)C=C2)c2ccc(N(C)C)cc2)cc1`, the GI50 was 5.94 µM (inactive) in the assay on 786-0; 23.7 µM (inactive) in the assay with CAKI-1; 11 µM (inactive) in the assay on DMS-114; 22.2 µM in the assay with HCT-15; 2.4 µM (inactive) in the assay on HL-60; 8.34 µM (inactive) with HOP-62. Besides, the GI50 in the assay with HOP-92 was 19.5 µM (inactive); in the assay on K562, 3.12 µM (inactive); in the assay on KM12, 4.55 µM (inactive); in the assay with LOX IMVI it was 5.2 µM (inactive); with Malme-3M it was 22.8 µM (inactive); in the assay on OVCAR-4 it was 15.1 µM (inactive). The GI50 was 37.3 µM (inactive) in the assay on RXF 393, 13.4 µM (inactive) in the assay with SK-MEL-5, 4.41 µM (inactive) in the assay with SW-620 and 13.2 µM (inactive) in the assay on UACC-257.
In the case of `CC(=O)SCCC1c2[nH]c3ccccc3c2CCN1O` (stereo not given), the GI50 was > 100 µM (inactive) in the assay on 786-0; 59.7 µM (inactive) in the assay on CAKI-1; 74.5 µM (inactive) in the assay with DMS-114; 71.6 µM in the assay with HCT-15; 36.6 µM (inactive) in the assay on HL-60; > 100 µM (inactive) with HOP-62. The GI50 in the assay on HOP-92 was 26.7 µM (inactive); in the assay with K562, 32.4 µM (inactive); in the assay on KM12 it was 68.9 µM (inactive); in the assay with LOX IMVI, 49 µM (inactive); with Malme-3M it was > 100 µM (inactive); in the assay on OVCAR-4, > 100 µM (inactive). Besides, the GI50 in the assay on RXF 393 is 78 µM (inactive); in the assay with SK-MEL-5, 83 µM (inactive); in the assay on SW-620, 28.1 µM (inactive); in the assay with UACC-257, > 100 µM (inactive).
Consider `NC1=NN(c2ccccc2)C(=O)C1C(=O)C(=O)NC1C2CC3CC(C2)CC1C3` (stereo not given), for which the GI50 is > 100 µM (inactive) with 786-0; > 100 µM (inactive) in the assay on DMS-114; greater than 100 µM in the assay on HCT-15; > 100 µM (inactive) in the assay on HL-60; > 100 µM (inactive) in the assay with HOP-62; > 100 µM (inactive) in the assay on HOP-92. Moreover, the GI50 in the assay on K562, with KM12, with LOX IMVI, in the assay with Malme-3M, with OVCAR-4 and in the assay with RXF 393 was > 100 µM (inactive) each time. The GI50 in the assay with SK-MEL-5, with SW-620 and in the assay with UACC-257 was > 100 µM (inactive) each time.
As for `O=[PH](O)c1cccnc1`, the GI50 in the assay with 786-0 is > 100 µM (inactive); with CAKI-1 it was > 100 µM (inactive); in the assay with DMS-114, > 100 µM (inactive); in the assay on HCT-15, greater than 100 µM; with HL-60, > 100 µM (inactive); in the assay on HOP-62 it was > 100 µM (inactive). Besides, the GI50 in the assay on HOP-92, in the assay with K562, with KM12, in the assay with LOX IMVI, with Malme-3M and in the assay with OVCAR-4 was > 100 µM (inactive) in each case. In addition, the GI50 in the assay with RXF 393, with SK-MEL-5, in the assay with SW-620 and in the assay with UACC-257 was > 100 µM (inactive) throughout.
For `CC1=NN(C(=O)c2ccccc2O)C(=O)/C1=C/c1c(O)ccc2ccccc12`, the GI50 in the assay with 786-0 was 0.316 µM (active); in the assay with CAKI-1, 1.32 µM (inactive); in the assay on DMS-114 it was 0.219 µM (active); in the assay on HCT-15, 0.48 µM; in the assay on HL-60, 0.299 µM (active); with HOP-62 it was 0.944 µM (active). Moreover, the GI50 was 1.96 µM (inactive) in the assay on HOP-92; 21.4 µM (inactive) in the assay with Hs-578T; 1.73 µM (inactive) in the assay on K562; 2.78 µM (inactive) with KM12; 0.625 µM (active) in the assay with LOX IMVI; 5.2 µM (inactive) with MDA-N. The GI50 in the assay with Malme-3M was 1.52 µM (inactive); with NCI/ADR-RES it was 1.34 µM (inactive); in the assay with OVCAR-4, 0.468 µM (active); in the assay with RXF 393, 0.787 µM (active); with SK-MEL-5, 1.19 µM (inactive); in the assay on SW-620, 0.863 µM (active). For the same molecule, the GI50 is 41.1 µM (inactive) in the assay on T47D and 2.47 µM (inactive) with UACC-257.
In the case of `O=S1(=O)CCCS(=O)(=O)C(c2ccccc2)=C1c1ccccc1`, the GI50 in the assay on 786-0 is 66.4 µM (inactive); with CAKI-1, 76.7 µM (inactive); in the assay on DMS-114, 42.7 µM (inactive); with HCT-15, 27.7 µM; with HL-60, 18.6 µM (inactive); in the assay with HOP-62, 30.3 µM (inactive). In addition, the GI50 is 28.2 µM (inactive) in the assay on HOP-92; 31.9 µM (inactive) with K562; 24.7 µM (inactive) with KM12; 33 µM (inactive) in the assay on LOX IMVI; 34.2 µM (inactive) in the assay with Malme-3M; 23.3 µM (inactive) in the assay on OVCAR-4. For the same molecule, the GI50 in the assay with SK-MEL-5 is 52.8 µM (inactive); in the assay with SW-620, 27.5 µM (inactive); in the assay on UACC-257, 69.7 µM (inactive).
For `CN1CC[C@]2(C)c3c(O)cccc3CC3CCCC1C32C` (stereo not given in full), the GI50 in the assay with 786-0 was > 100 µM (inactive); in the assay on CAKI-1, > 100 µM (inactive); with DMS-114 it was > 100 µM (inactive); in the assay on HCT-15, greater than 100 µM; in the assay on HL-60, 96.2 µM (inactive); in the assay on HOP-62, > 100 µM (inactive). The GI50 is 89.7 µM (inactive) in the assay with HOP-92; 91.6 µM (inactive) in the assay with K562; > 100 µM (inactive) in the assay on KM12; > 100 µM (inactive) in the assay on LOX IMVI; > 100 µM (inactive) with Malme-3M; > 100 µM (inactive) in the assay on RXF 393. Also, the GI50 with SK-MEL-5 and in the assay with UACC-257 was > 100 µM (inactive) in each case.
With `CCOCC(=O)N[C@H]1CCc2cc(OC)c(OC)c(OC)c2-c2ccc(SC)c(=O)cc21`, the GI50 was < 0.01 µM (active) with 786-0; < 0.01 µM (active) in the assay with CAKI-1; < 0.01 µM (active) in the assay with DMS-114; less than 0.01 µM with HCT-15; 0.0217 µM (active) with HL-60; < 0.01 µM (active) with HOP-62. The GI50 with HOP-92 was < 0.01 µM (active); in the assay on Hs-578T, < 0.01 µM (active); with K562, 0.0146 µM (active); in the assay on KM12, < 0.01 µM (active); with LOX IMVI, < 0.01 µM (active); in the assay on MDA-N, < 0.01 µM (active). In addition, the GI50 is < 0.01 µM (active) in the assay with Malme-3M; 0.0159 µM (active) with NCI/ADR-RES; 3.97 µM (inactive) in the assay with OVCAR-4; < 0.01 µM (active) in the assay with RXF 393; < 0.01 µM (active) with SK-MEL-5; < 0.01 µM (active) in the assay with SW-620. The GI50 in the assay on T47D was > 100 µM (inactive); in the assay with UACC-257, < 0.0169 µM (active).
In the case of `CC1(Br)C(=O)NC(=O)N([C@H]2C[C@H](O)[C@@H](CO)O2)C1N=[N+]=[N-]` (stereo not given in full), the GI50 with 786-0 is > 100 µM (inactive); in the assay with CAKI-1, > 100 µM (inactive); with DMS-114, > 91.2 µM (inactive); in the assay on HCT-15 it was greater than 100 µM; in the assay on HL-60, > 100 µM (inactive); in the assay with HOP-62 it was > 100 µM (inactive). The GI50 with HOP-92, in the assay on K562, with KM12, in the assay with LOX IMVI, in the assay with Malme-3M and with OVCAR-4 was > 100 µM (inactive) in each case. In addition, the GI50 in the assay with RXF 393, with SK-MEL-5, with SW-620 and in the assay on UACC-257 was > 100 µM (inactive) in each case.
